Laboratory results as given in ChEMBL document CHEMBL5034019, “Discovery of the Next-Generation Pan-TRK Kinase Inhibitors for the Treatment of Cancer” (J Med Chem, 2021).
In brackets after ≈: the same amount, converted by molar mass.

How the values were obtained:
BaF3 [1] = experiment: Cytotoxicity against mouse BaF3 cells transfected with SLC34A2-Ros1 assessed as reduction in cell viability by MTT assay; format: functional, cell-based
[2] = Clearance in Sprague-Dawley rat at 3 mg/kg measured up to 24 hrs by LC/MS/MS analysis; format: ADME, organism-based; settings: in vivo
[3] = Tmax in Sprague-Dawley rat at 10 mg/kg, po measured up to 24 hrs by LC-MS analysis; format: ADME, organism-based; settings: in vivo
Cytochrome P450 1A2 = target: T1, Cytochrome P450 1A2 (Homo sapiens, UniProt P05177); experiment: Inhibition of CYP1A2 in human pooled liver microsomes using phenacetin as substrate in presence of NADPH by LC-MS/MS analysis; format: ADME
T1 sequence (P05177 whole entry): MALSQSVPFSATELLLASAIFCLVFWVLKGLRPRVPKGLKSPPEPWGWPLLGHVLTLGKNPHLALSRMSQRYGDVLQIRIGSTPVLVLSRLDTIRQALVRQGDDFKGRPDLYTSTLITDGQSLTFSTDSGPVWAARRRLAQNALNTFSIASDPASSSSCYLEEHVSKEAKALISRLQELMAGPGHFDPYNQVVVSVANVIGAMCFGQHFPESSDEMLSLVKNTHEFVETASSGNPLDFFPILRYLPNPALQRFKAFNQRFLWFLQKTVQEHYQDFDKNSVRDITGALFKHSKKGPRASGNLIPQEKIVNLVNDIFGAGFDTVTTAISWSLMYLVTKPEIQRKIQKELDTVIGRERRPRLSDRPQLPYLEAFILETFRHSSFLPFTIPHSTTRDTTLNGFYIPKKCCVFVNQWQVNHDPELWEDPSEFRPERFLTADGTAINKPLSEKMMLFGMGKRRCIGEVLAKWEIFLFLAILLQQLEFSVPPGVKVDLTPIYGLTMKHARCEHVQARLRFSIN

[4] = Protein binding in rat plasma assessed as unbound fraction by LC-MS/MS based equilibrium dialysis method; format: ADME, cell-free
[5] = AUC (0 to t) in Sprague-Dawley rat at 3 mg/kg measured up to 24 hrs by LC-MS/MS analysis; format: ADME, organism-based; set-up: dose 3 mg/kg, time <=24; settings: in vivo
[6] = Kinetic solubility of the compound; format: physicochemical; settings: read-out: Kinetic_solubility
[7] = Protein binding in dog plasma assessed as unbound fraction by LC-MS/MS based equilibrium dialysis method; format: ADME, cell-free, Canis lupus familiaris
Cytochrome P450 2C19 = Cytochrome P450 2C19 (Homo sapiens, UniProt P33261); experiment: Inhibition of CYP2C19 in human pooled liver microsomes using S-mephenytoin as substrate in presence of NADPH by LC-MS/MS analysis; format: ADME
Cytochrome P450 2C19, sequence (P33261 whole entry): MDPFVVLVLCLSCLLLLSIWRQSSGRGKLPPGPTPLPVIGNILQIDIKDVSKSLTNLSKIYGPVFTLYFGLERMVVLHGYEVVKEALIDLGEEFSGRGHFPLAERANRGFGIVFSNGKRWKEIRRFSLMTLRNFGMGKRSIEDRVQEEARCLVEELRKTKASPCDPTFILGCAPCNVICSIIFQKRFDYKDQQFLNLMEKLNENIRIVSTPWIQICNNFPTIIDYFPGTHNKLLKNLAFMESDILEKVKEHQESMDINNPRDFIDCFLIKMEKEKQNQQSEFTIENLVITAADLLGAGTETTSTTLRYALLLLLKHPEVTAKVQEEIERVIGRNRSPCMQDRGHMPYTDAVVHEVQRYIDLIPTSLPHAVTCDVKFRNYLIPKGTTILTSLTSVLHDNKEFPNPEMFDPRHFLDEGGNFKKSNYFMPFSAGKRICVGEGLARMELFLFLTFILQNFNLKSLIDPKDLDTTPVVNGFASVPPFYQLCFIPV

[8] = Metabolic stability in dog liver microsomes assessed as intrinsic clearance at 1 uM by LC-MS/MS analysis; format: ADME, Canis lupus familiaris, Microsome; settings: read-out: CLH
[9] = C0 in Sprague-Dawley rat at 3 mg/kg measured up to 24 hrs by LC/MS/MS analysis; format: ADME, organism-based; settings: in vivo
BaF3 [10] = experiment: Cytotoxicity against mouse BaF3 cells transfected with TrKA G623R mutant assessed as reduction in cell viability by MTT assay; format: functional, cell-based
Cytochrome P450 2C9 = Cytochrome P450 2C9 (Homo sapiens, UniProt P11712); experiment: Inhibition of CYP2C9 in human pooled liver microsomes using diclofenac as substrate in presence of NADPH by LC-MS/MS analysis; format: ADME
Cytochrome P450 2C9, sequence (P11712 whole entry): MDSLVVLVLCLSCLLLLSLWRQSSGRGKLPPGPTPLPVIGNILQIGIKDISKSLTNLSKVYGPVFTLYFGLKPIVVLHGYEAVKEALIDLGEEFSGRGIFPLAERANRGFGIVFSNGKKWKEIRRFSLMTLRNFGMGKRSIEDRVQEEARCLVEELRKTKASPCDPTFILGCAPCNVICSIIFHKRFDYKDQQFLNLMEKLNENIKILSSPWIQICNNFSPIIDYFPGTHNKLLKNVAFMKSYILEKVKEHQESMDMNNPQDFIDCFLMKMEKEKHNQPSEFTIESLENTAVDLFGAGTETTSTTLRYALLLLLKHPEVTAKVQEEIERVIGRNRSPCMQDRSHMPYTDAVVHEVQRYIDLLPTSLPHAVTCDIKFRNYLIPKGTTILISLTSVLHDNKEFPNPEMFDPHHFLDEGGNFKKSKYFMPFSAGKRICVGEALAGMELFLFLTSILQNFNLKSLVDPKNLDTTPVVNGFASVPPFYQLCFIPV

[11] = Metabolic stability in rat liver microsomes assessed as intrinsic clearance at 1 uM by LC-MS/MS analysis; format: ADME, Microsome; settings: read-out: CLH
Cytochrome P450 2D6 = Cytochrome P450 2D6 (Homo sapiens, UniProt P10635); experiment: Inhibition of CYP2D6 in human pooled liver microsomes using dextromethorphan as substrate in presence of NADPH by LC-MS/MS analysis; format: ADME
Cytochrome P450 2D6, sequence (P10635 whole entry): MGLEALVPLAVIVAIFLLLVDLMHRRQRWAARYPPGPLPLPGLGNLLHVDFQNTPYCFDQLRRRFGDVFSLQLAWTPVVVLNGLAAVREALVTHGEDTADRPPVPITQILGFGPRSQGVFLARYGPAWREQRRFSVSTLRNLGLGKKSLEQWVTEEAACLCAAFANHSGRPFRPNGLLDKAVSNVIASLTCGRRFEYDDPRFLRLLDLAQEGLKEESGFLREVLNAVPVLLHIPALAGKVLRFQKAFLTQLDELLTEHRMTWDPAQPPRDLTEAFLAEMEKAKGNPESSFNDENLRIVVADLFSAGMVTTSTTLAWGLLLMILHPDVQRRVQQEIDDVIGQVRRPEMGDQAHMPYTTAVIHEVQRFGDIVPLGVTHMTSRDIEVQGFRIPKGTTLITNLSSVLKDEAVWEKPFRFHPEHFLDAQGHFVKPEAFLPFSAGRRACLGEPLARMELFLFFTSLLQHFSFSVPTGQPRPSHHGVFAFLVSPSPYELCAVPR

BaF3 [12] = experiment: cells; settings: Mus musculus
Description: Cytotoxicity against mouse BaF3 cells transfected with TrKA assessed as reduction in cell viability by MTT assay

[13] = Metabolic stability in human liver microsomes assessed as intrinsic clearance at 1 uM by LC-MS/MS analysis; format: ADME, Microsome; settings: read-out: CLH
BaF3 [14] = experiment: Cytotoxicity against mouse BaF3 cells transfected with TrKA G595R mutant assessed as reduction in cell viability by MTT assay; format: functional, cell-based
BaF3 [15] = experiment: Cytotoxicity against mouse BaF3 cells transfected with TrKA F589L mutant assessed as reduction in cell viability by MTT assay; format: functional, cell-based
[16] = Protein binding in mouse plasma assessed as unbound fraction by LC-MS/MS based equilibrium dialysis method; format: ADME, cell-free
Cytochrome P450 3A4 = Cytochrome P450 3A4 (Homo sapiens, UniProt P08684); experiment: Inhibition of CYP3A4 in human pooled liver microsomes using midazolam and testosterone as substrate in presence of NADPH by LC-MS/MS analysis; format: ADME
[17] = AUC (0 to t) in Sprague-Dawley rat at 10 mg/kg, po measured up to 24 hrs by LC-MS/MS analysis; format: ADME, organism-based; set-up: route oral, dose 10 mg/kg, time <=24; settings: in vivo
[18] = Oral bioavailability in Sprague-Dawley rat at 10 mg/kg measured up to 24 hrs by LC/MS/MS analysis; format: ADME, organism-based; settings: in vivo
[19] = Volume of distribution in Sprague-Dawley rat at 3 mg/kg measured up to 24 hrs by LC-MS/MS analysis; format: ADME, organism-based; settings: in vivo
[20] = Half life in Sprague-Dawley rat at 3 mg/kg measured up to 24 hrs by LC-MS/MS analysis; format: ADME, organism-based; settings: in vivo
[21] = Apparent permeability across apical to basolateral side in human Caco-2 cells incubated for 2 hrs by LC-MS/MS analysis; format: ADME, cell-based
[22] = Metabolic stability in mouse liver microsomes assessed as intrinsic clearance at 1 uM by LC-MS/MS analysis; format: ADME, Microsome; settings: read-out: CLH
[23] = Protein binding in human plasma assessed as unbound fraction by LC-MS/MS based equilibrium dialysis method; format: ADME, cell-free
[24] = Cmax in Sprague-Dawley rat at 10 mg/kg, po measured up to 24 hrs by LC-MS/MS analysis; format: ADME, organism-based; set-up: route oral, dose 10 mg/kg, time <=24; settings: in vivo
[25] = target: High affinity nerve growth factor receptor (Homo sapiens, UniProt P04629)
High affinity nerve growth factor receptor (Homo sapiens, UniProt P04629), sequence (P04629 whole entry): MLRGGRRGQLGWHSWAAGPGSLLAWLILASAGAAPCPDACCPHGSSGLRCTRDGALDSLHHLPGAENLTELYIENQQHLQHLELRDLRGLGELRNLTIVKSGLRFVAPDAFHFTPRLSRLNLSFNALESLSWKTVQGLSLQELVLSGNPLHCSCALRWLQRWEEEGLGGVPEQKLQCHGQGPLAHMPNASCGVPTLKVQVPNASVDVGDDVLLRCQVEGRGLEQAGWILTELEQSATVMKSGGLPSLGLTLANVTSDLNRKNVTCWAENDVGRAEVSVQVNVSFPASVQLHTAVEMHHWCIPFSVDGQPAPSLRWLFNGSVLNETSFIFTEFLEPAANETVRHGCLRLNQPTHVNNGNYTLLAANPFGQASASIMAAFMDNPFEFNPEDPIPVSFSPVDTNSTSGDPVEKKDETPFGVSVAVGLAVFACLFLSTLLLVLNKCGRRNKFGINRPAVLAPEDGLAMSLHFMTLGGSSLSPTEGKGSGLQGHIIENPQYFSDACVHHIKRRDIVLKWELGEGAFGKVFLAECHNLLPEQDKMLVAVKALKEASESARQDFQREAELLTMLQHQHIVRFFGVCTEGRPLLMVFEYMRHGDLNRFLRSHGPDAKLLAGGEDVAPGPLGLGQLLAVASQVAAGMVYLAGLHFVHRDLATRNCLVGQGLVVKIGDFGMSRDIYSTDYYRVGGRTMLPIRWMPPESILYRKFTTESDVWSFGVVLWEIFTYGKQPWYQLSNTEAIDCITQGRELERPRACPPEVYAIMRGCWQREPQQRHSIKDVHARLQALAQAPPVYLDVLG
Description: Inhibition of TrKA (unknown origin) incubated for 120 mins in presence of 33P-ATP

[26] = target: High affinity nerve growth factor receptor (Homo sapiens, UniProt P04629, G595R)
High affinity nerve growth factor receptor (Homo sapiens, UniProt P04629, G595R), sequence (P04629 33-796 G595R limits assumed): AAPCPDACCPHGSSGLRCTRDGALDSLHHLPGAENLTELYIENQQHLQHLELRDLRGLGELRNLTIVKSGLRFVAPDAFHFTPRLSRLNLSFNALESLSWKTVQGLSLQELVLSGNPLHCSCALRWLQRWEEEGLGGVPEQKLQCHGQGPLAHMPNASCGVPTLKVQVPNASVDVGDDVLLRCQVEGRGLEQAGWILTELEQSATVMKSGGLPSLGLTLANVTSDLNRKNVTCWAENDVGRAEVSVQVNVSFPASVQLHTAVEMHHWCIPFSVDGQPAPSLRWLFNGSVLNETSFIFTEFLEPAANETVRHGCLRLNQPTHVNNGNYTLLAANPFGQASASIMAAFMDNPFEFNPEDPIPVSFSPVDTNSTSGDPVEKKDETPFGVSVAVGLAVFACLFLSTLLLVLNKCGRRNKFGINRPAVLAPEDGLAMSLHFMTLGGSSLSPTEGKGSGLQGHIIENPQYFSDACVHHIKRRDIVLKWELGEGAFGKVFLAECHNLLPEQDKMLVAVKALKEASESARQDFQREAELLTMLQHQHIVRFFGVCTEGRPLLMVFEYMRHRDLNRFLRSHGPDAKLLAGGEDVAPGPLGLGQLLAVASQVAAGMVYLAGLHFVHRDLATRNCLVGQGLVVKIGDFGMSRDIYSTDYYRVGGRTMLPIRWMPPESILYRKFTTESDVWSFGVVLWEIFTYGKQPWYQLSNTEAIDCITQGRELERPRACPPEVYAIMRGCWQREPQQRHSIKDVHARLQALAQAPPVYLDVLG

[27] = target: ALK tyrosine kinase receptor (Homo sapiens, UniProt Q9UM73)
ALK tyrosine kinase receptor, sequence (Q9UM73 whole entry): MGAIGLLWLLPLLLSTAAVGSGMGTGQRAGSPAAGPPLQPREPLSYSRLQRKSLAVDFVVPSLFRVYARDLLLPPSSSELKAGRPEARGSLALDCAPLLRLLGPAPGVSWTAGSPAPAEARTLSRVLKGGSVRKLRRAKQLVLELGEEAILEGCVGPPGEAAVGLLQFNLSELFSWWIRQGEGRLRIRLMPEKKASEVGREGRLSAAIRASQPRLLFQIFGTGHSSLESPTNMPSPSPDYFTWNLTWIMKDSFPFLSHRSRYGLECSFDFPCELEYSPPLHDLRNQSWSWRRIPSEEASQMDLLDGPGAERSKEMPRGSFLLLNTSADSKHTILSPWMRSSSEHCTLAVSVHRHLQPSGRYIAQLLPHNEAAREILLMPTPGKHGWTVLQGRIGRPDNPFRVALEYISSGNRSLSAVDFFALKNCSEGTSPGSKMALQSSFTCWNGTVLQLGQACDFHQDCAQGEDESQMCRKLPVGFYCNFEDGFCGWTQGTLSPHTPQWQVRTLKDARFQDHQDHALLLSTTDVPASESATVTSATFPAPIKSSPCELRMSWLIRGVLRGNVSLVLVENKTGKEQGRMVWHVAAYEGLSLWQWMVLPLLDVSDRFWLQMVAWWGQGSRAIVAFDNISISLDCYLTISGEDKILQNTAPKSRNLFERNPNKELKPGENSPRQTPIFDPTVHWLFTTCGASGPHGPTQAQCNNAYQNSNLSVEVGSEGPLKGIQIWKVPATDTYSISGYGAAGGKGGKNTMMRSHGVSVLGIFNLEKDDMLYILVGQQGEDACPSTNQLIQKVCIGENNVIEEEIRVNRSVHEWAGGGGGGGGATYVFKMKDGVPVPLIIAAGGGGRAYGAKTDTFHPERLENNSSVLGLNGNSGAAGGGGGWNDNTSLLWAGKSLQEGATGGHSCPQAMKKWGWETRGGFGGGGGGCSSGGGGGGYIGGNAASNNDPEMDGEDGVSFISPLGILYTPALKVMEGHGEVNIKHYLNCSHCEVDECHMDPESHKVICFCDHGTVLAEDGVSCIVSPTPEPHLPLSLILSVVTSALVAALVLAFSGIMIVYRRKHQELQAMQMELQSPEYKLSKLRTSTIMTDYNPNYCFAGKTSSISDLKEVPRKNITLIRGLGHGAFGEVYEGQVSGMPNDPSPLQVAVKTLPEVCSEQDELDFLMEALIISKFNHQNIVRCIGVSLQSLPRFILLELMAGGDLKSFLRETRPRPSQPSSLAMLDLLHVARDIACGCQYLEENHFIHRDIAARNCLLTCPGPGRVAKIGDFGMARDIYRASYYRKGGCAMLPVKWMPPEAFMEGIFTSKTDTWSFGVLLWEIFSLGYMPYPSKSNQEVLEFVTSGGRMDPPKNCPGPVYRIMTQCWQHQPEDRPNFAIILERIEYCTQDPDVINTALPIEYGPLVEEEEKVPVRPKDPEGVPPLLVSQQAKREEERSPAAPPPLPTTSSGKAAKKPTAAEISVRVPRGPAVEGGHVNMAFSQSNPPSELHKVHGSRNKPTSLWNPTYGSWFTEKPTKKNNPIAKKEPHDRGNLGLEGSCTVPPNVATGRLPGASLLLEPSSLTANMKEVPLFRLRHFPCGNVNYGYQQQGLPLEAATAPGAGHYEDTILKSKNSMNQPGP
Description: Inhibition of ALK (unknown origin) incubated for 120 mins in presence of 33P-ATP

[28] = target: Voltage-gated inwardly rectifying potassium channel KCNH2 (Homo sapiens, UniProt Q12809); experiment: Inhibition of human ERG

| fraction unbound [4] | fraction unbound [7] | CLint scaled at 1 µM [8] [mL/min/kg] | CLint scaled at 1 µM [11] [mL/min/kg] | CLint scaled at 1 µM [13] [mL/min/kg] | fraction unbound [16] | Papp A→B at 2 h [21] [×10⁻⁶ cm/s] | CLint scaled at 1 µM [22] [mL/min/kg] | fraction unbound [23] | IC50 [25] [nM] | SMILES | also measured |
| --- | --- | --- | --- | --- | --- | --- | --- | --- | --- | --- | --- |
| 0.06 | 0.09 | 21 | 49 | 29 | 0.05 | 0.9 | 982 | 0.05 |  | C[C@H]1CNC(=O)c2cnn3ccc(nc23)N[C@H](C)c2cc(F)ccc2O1 [REPOTRECTINIB] | IC50 (BaF3 [1]): 2.2 nM; clearance [2]: 9.4 mL/min/kg; Tmax [3]: 0.8 h; IC50 (Cytochrome P450 1A2): > 50000 nM; AUC(0-t) at 24 h [5]: 15 µM·h; solubility kinetic [6]: 65.8 µM (≈ 23.4 µg/mL); IC50 (Cytochrome P450 2C19): 12300 nM; C0 [9]: 12.87 µM; IC50 (BaF3 [10]): 4.8 nM; IC50 (Cytochrome P450 2C9): 6400 nM; IC50 (Cytochrome P450 2D6): 28500 nM; IC50 (BaF3 [12]): 1.8 nM; IC50 (BaF3 [14]): 8 nM; IC50 (BaF3 [15]): 0.7 nM; IC50 (Cytochrome P450 3A4): > 50000 nM; AUC(0-t) at 24 h [17]: 59.7 µM·h; bioavailability [18]: 119%; Vd [19]: 1.1 L/kg; half-life [20]: 2.8 h; Cmax [24]: 16.9 µM |
|  |  |  |  |  |  |  |  |  | 846 | C[C@H]1NC(=O)c2cnn3ccc(nc23)N[C@H](C)c2cc(F)ccc2NC1=O |  |
|  |  |  |  |  |  |  |  |  | 67.5 | C[C@@H]1COc2ncc(F)cc2C23CC2CCN3c2ccn3ncc(c3n2)C(=O)N1 (some centres undefined) |  |
|  |  |  |  |  |  |  |  |  | > 1000 | C[C@H]1Nc2ccn3ncc(c3n2)C(=O)N2CCC(CC2)c2ccc(F)cc21 |  |
| 0.02 | 0.03 | 268 | 980 | 242 | 0.02 | 16.3 | 1010 | 0.02 | 3.2 | O=C1NC2(CC2)COc2ncc(F)cc2[C@H]2CCCCN2c2ccn3ncc1c3n2 | IC50 (BaF3 [1]): 12.6 nM; IC50 [26]: 2.1 nM; IC50 (BaF3 [10]): 5.8 nM; IC50 [27]: 18.5 nM; IC50 (BaF3 [14]): 0.4 nM |
|  |  |  |  |  |  |  |  |  | > 1000 | C[C@H]1Nc2ccn3ncc(c3n2)C(=O)N2CCN(CC2)c2ccc(F)cc21 |  |
|  |  |  |  |  |  |  |  |  | > 1000 | C[C@H]1CNS(=O)(=O)c2cnn3ccc(nc23)N[C@H](C)c2cc(F)ccc2O1 |  |
| 0.3 | 0.34 | 74 | 29 | 43 | 0.28 | 3.9 | 342 | 0.36 |  | O=C1NC2(CC2)COc2ncc(F)cc2[C@H]2CNCCN2c2ccn3ncc1c3n2 | IC50 [28]: 6700 nM |
